# Source: ChEMBL document CHEMBL3792342, “Synthesis and biological evaluation of 2-arylimino-3-pyridin-thiazolineone derivatives as antibacterial agents” (Bioorg Med Chem Lett, 2016)
# Test system: Staphylococcus epidermidis
# Experiment: Antibacterial activity against Staphylococcus epidermidis ATCC 35984 by broth micro-dilution method
# Type: functional
# Conditions: RP62A
row,SMILES,MIC [µM]
1,O=C(O)c1cccc(-c2ccc(/C=C3\S/C(=N\c4ccc(Cl)cc4)N(c4ccccc4)C3=O)o2)c1,6.25
2,O=C(O)c1cccc(-c2ccc(/C=C3\S/C(=N\c4ccccc4)N(c4cccnc4Cl)C3=O)o2)c1,3.13
3,O=C(O)c1cccc(-c2ccc(/C=C3\S/C(=N\c4ccc(F)cc4)N(c4ccc(F)cc4)C3=O)o2)c1,100
4,O=C(O)c1cccc(-c2ccc(/C=C3\S/C(=N\c4ccccc4)N(c4ncccc4F)C3=O)o2)c1,12.5
5,O=C(O)c1cccc(-c2ccc(/C=C3\S/C(=N\c4ccc(Cl)cc4)N(c4ccc(Cl)cc4)C3=O)o2)c1,25
6,O=C(O)c1cccc(-c2ccc(/C=C3\S/C(=N\c4ccccc4)N(c4cccnc4[N+](=O)[O-])C3=O)s2)c1,1.56
7,O=C(O)c1cccc(-c2ccc(/C=C3\S/C(=N\c4ccccc4)N(c4ccc(Cl)cc4)C3=O)s2)c1,1.56
8,O=C(O)c1cccc(-c2ccc(/C=C3\S/C(=N\c4ccccc4)N(c4cccnc4Cl)C3=O)s2)c1,1.56
9,Cc1ncccc1N1C(=O)/C(=C/c2ccc(-c3cccc(C(=O)O)c3)s2)S/C1=N\c1ccccc1,12.5
10,O=C(O)c1cccc(-c2ccc(/C=C3\S/C(=N\c4ccccc4)N(c4ccc(F)cc4)C3=O)o2)c1,25
11,COc1cccc(OC)c1C(=O)N[C@@H]1C(=O)N2[C@@H]1SC(C)(C)[C@@H]2C(=O)O [METHICILLIN],3.13

# Test system: Staphylococcus aureus
# Experiment: Antibacterial activity against methicillin-resistant Staphylococcus aureus 8282 by broth micro-dilution method
# Type: functional
# Conditions: not given
row,SMILES,MIC [µM]
1,O=C(O)c1cccc(-c2ccc(/C=C3\S/C(=N\c4ccc(Cl)cc4)N(c4ccccc4)C3=O)o2)c1,6.25
2,O=C(O)c1cccc(-c2ccc(/C=C3\S/C(=N\c4ccccc4)N(c4cccnc4Cl)C3=O)o2)c1,6.25
3,O=C(O)c1cccc(-c2ccc(/C=C3\S/C(=N\c4ccc(F)cc4)N(c4ccc(F)cc4)C3=O)o2)c1,100
4,O=C(O)c1cccc(-c2ccc(/C=C3\S/C(=N\c4ccccc4)N(c4ncccc4F)C3=O)o2)c1,12.5
5,O=C(O)c1cccc(-c2ccc(/C=C3\S/C(=N\c4ccc(Cl)cc4)N(c4ccc(Cl)cc4)C3=O)o2)c1,25
6,O=C(O)c1cccc(-c2ccc(/C=C3\S/C(=N\c4ccccc4)N(c4cccnc4[N+](=O)[O-])C3=O)s2)c1,3.13
7,O=C(O)c1cccc(-c2ccc(/C=C3\S/C(=N\c4ccccc4)N(c4ccc(Cl)cc4)C3=O)s2)c1,3.13
8,O=C(O)c1cccc(-c2ccc(/C=C3\S/C(=N\c4ccccc4)N(c4cccnc4Cl)C3=O)s2)c1,3.13
9,Cc1ncccc1N1C(=O)/C(=C/c2ccc(-c3cccc(C(=O)O)c3)s2)S/C1=N\c1ccccc1,12.5
10,O=C(O)c1cccc(-c2ccc(/C=C3\S/C(=N\c4ccccc4)N(c4ccc(F)cc4)C3=O)o2)c1,25
11,COc1cccc(OC)c1C(=O)N[C@@H]1C(=O)N2[C@@H]1SC(C)(C)[C@@H]2C(=O)O [METHICILLIN],100

# Test system: Staphylococcus epidermidis
# Experiment: Bactericidal activity against Staphylococcus epidermidis ATCC 35984
# Type: functional
# Conditions: RP62A
row,SMILES,MBC [µM]
1,O=C(O)c1cccc(-c2ccc(/C=C3\S/C(=N\c4ccc(Cl)cc4)N(c4ccccc4)C3=O)o2)c1,100
2,O=C(O)c1cccc(-c2ccc(/C=C3\S/C(=N\c4ccccc4)N(c4cccnc4Cl)C3=O)o2)c1,50
3,O=C(O)c1cccc(-c2ccc(/C=C3\S/C(=N\c4ccc(F)cc4)N(c4ccc(F)cc4)C3=O)o2)c1,> 200
4,O=C(O)c1cccc(-c2ccc(/C=C3\S/C(=N\c4ccccc4)N(c4ncccc4F)C3=O)o2)c1,> 200
5,O=C(O)c1cccc(-c2ccc(/C=C3\S/C(=N\c4ccc(Cl)cc4)N(c4ccc(Cl)cc4)C3=O)o2)c1,> 200
6,O=C(O)c1cccc(-c2ccc(/C=C3\S/C(=N\c4ccccc4)N(c4cccnc4[N+](=O)[O-])C3=O)s2)c1,12.6
7,O=C(O)c1cccc(-c2ccc(/C=C3\S/C(=N\c4ccccc4)N(c4ccc(Cl)cc4)C3=O)s2)c1,25
8,O=C(O)c1cccc(-c2ccc(/C=C3\S/C(=N\c4ccccc4)N(c4cccnc4Cl)C3=O)s2)c1,6.3
9,Cc1ncccc1N1C(=O)/C(=C/c2ccc(-c3cccc(C(=O)O)c3)s2)S/C1=N\c1ccccc1,100
10,O=C(O)c1cccc(-c2ccc(/C=C3\S/C(=N\c4ccccc4)N(c4ccc(F)cc4)C3=O)o2)c1,50
11,COc1cccc(OC)c1C(=O)N[C@@H]1C(=O)N2[C@@H]1SC(C)(C)[C@@H]2C(=O)O [METHICILLIN],> 200

# Test system: Escherichia coli
# Experiment: Antibacterial activity against Escherichia coli ATCC 25922 by broth micro-dilution method
# Type: functional
# Conditions: not given
row,SMILES,MIC [µM]
1,O=C(O)c1cccc(-c2ccc(/C=C3\S/C(=N\c4ccc(Cl)cc4)N(c4ccccc4)C3=O)o2)c1,> 200
2,O=C(O)c1cccc(-c2ccc(/C=C3\S/C(=N\c4ccccc4)N(c4cccnc4Cl)C3=O)o2)c1,> 200
3,O=C(O)c1cccc(-c2ccc(/C=C3\S/C(=N\c4ccc(F)cc4)N(c4ccc(F)cc4)C3=O)o2)c1,> 200
4,O=C(O)c1cccc(-c2ccc(/C=C3\S/C(=N\c4ccccc4)N(c4ncccc4F)C3=O)o2)c1,> 200
5,O=C(O)c1cccc(-c2ccc(/C=C3\S/C(=N\c4ccc(Cl)cc4)N(c4ccc(Cl)cc4)C3=O)o2)c1,> 200
6,O=C(O)c1cccc(-c2ccc(/C=C3\S/C(=N\c4ccccc4)N(c4cccnc4[N+](=O)[O-])C3=O)s2)c1,> 200
7,O=C(O)c1cccc(-c2ccc(/C=C3\S/C(=N\c4ccccc4)N(c4ccc(Cl)cc4)C3=O)s2)c1,> 200
8,O=C(O)c1cccc(-c2ccc(/C=C3\S/C(=N\c4ccccc4)N(c4cccnc4Cl)C3=O)s2)c1,> 200
9,Cc1ncccc1N1C(=O)/C(=C/c2ccc(-c3cccc(C(=O)O)c3)s2)S/C1=N\c1ccccc1,> 200
10,O=C(O)c1cccc(-c2ccc(/C=C3\S/C(=N\c4ccccc4)N(c4ccc(F)cc4)C3=O)o2)c1,> 200
11,COc1cccc(OC)c1C(=O)N[C@@H]1C(=O)N2[C@@H]1SC(C)(C)[C@@H]2C(=O)O [METHICILLIN],> 200

# Test system: not listed separately
# Experiment: Cytotoxicity against African green monkey Vero cells
# Type: cell-based
# Conditions: chlorocebus sabaeus
row,SMILES,CC50 [µM]
1,O=C(O)c1cccc(-c2ccc(/C=C3\S/C(=N\c4ccc(Cl)cc4)N(c4ccccc4)C3=O)o2)c1,> 200
2,O=C(O)c1cccc(-c2ccc(/C=C3\S/C(=N\c4ccccc4)N(c4cccnc4Cl)C3=O)o2)c1,> 200
3,O=C(O)c1cccc(-c2ccc(/C=C3\S/C(=N\c4ccc(F)cc4)N(c4ccc(F)cc4)C3=O)o2)c1,> 200
4,O=C(O)c1cccc(-c2ccc(/C=C3\S/C(=N\c4ccccc4)N(c4ncccc4F)C3=O)o2)c1,> 200
5,O=C(O)c1cccc(-c2ccc(/C=C3\S/C(=N\c4ccc(Cl)cc4)N(c4ccc(Cl)cc4)C3=O)o2)c1,> 200
6,O=C(O)c1cccc(-c2ccc(/C=C3\S/C(=N\c4ccccc4)N(c4cccnc4[N+](=O)[O-])C3=O)s2)c1,> 200
7,O=C(O)c1cccc(-c2ccc(/C=C3\S/C(=N\c4ccccc4)N(c4ccc(Cl)cc4)C3=O)s2)c1,> 200
8,O=C(O)c1cccc(-c2ccc(/C=C3\S/C(=N\c4ccccc4)N(c4cccnc4Cl)C3=O)s2)c1,> 200
9,Cc1ncccc1N1C(=O)/C(=C/c2ccc(-c3cccc(C(=O)O)c3)s2)S/C1=N\c1ccccc1,> 200
10,O=C(O)c1cccc(-c2ccc(/C=C3\S/C(=N\c4ccccc4)N(c4ccc(F)cc4)C3=O)o2)c1,> 200
11,COc1cccc(OC)c1C(=O)N[C@@H]1C(=O)N2[C@@H]1SC(C)(C)[C@@H]2C(=O)O [METHICILLIN],> 200

# Test system: not listed separately
# Experiment: Hemolytic activity in human erythrocytes at 200 uM
# Type: ADME, cell-based
# Conditions: erythrocyte
row,SMILES,Activity
1,O=C(O)c1cccc(-c2ccc(/C=C3\S/C(=N\c4ccc(Cl)cc4)N(c4ccccc4)C3=O)o2)c1,Non-toxic
2,O=C(O)c1cccc(-c2ccc(/C=C3\S/C(=N\c4ccccc4)N(c4cccnc4Cl)C3=O)o2)c1,Non-toxic
3,O=C(O)c1cccc(-c2ccc(/C=C3\S/C(=N\c4ccc(F)cc4)N(c4ccc(F)cc4)C3=O)o2)c1,Non-toxic
4,O=C(O)c1cccc(-c2ccc(/C=C3\S/C(=N\c4ccccc4)N(c4ncccc4F)C3=O)o2)c1,Non-toxic
5,O=C(O)c1cccc(-c2ccc(/C=C3\S/C(=N\c4ccc(Cl)cc4)N(c4ccc(Cl)cc4)C3=O)o2)c1,Non-toxic
6,O=C(O)c1cccc(-c2ccc(/C=C3\S/C(=N\c4ccccc4)N(c4cccnc4[N+](=O)[O-])C3=O)s2)c1,Non-toxic
7,O=C(O)c1cccc(-c2ccc(/C=C3\S/C(=N\c4ccccc4)N(c4ccc(Cl)cc4)C3=O)s2)c1,Non-toxic
8,O=C(O)c1cccc(-c2ccc(/C=C3\S/C(=N\c4ccccc4)N(c4cccnc4Cl)C3=O)s2)c1,Non-toxic
9,Cc1ncccc1N1C(=O)/C(=C/c2ccc(-c3cccc(C(=O)O)c3)s2)S/C1=N\c1ccccc1,Non-toxic
10,O=C(O)c1cccc(-c2ccc(/C=C3\S/C(=N\c4ccccc4)N(c4ccc(F)cc4)C3=O)o2)c1,Non-toxic
11,COc1cccc(OC)c1C(=O)N[C@@H]1C(=O)N2[C@@H]1SC(C)(C)[C@@H]2C(=O)O [METHICILLIN],Non-toxic
